The source of these data is patent US6437184B1, “Oxime compounds, their use, and intermediates for their production” (Sumitomo Chemical Company, Limited, priority 1997, dated 2002).

Test [1] deals with Musca domestica. Kind of test: Insecticidal test against Musca domestica. The test is classed as in vivo. The following applies: 24 h, 500 ppm water dilution, 0.7 ml on filter paper with sucrose, female adults, after 1 day, read-out: mortality. Here is the method: In the bottom of a polyethylene cup having a diameter of 5.5 cm was placed a piece of filter paper having the same size. A 200-fold water dilution (500 ppm) of a test compound formulation obtained according to Formulation Example 1 was added dropwise at a volume of 0.7 ml on the filter paper, and about 30 mg of sucrose as a diet was uniformly placed thereon. Ten female adults of houseflies (Musca domestica) were set free in the cup, and the cup was kept covered. After 1 day, the survival of the adults was determined to determine the mortality.

For test [2], the system named is Cydia pomonella. Kind of test: Insecticidal test against Cydia pomonella. Format: in vivo. The following applies: 168 h, 100 ppm water dilution, 0.2 ml on surface of artificial diet, eggs just before hatching, after 7 days. Here is the method:
A water dilution (100 ppm) of a test compound formulation obtained according to Formulation Example 1 was added dropwise at a volume of 0.2 ml and spread over the surface of an artificial diet having a weight of 3 g, which had been prepared in a 30 ml polyethylene cup. After air drying, placed in the cup was a piece of wax paper (about 2.5 cm square) having about 20 eggs which had been laid by Cydia pomonella and were just before hatching. Four pieces of such wax paper were used for each treatment. After 7 days, the mortality of the larvae was determined.

Where only a bound is given, the exact number is not on record here.

As to `CCON=CCOCCCCOc1c(Cl)cc(OCC=C(Cl)Cl)cc1Cl` [(1), 4-(2,6-dichloro-4-(3,3-dichloro-2-propenyloxy)phenoxy)butyloxyacetaldehyde O-ethyloxime], the mortality at 500 µg/mL in test [1] is not below 80%. On to `C=CCON=CCOCCCCOc1c(Cl)cc(OCC=C(Cl)Cl)cc1Cl` [(4), 4-(2,6-dichloro-4-(3,3-dichloro-2-propenyloxy)phenoxy)butyloxyacetaldehyde O-(2-propenyl)oxime], for which, in test [1], the mortality at 500 µg/mL was not below 80%. Still for that read-out and setting: to `CON=CCOCCCCOc1c(Cl)cc(OCC=C(Cl)Cl)cc1Cl` [(7), 4-(2,6-dichloro-4-(3,3-dichloro-2-propenyloxy)phenoxy)butyloxyacetaldehyde O-methyloxime] belongs not below 80%.

For the compound `CCc1cc(OCC=C(Cl)Cl)cc(CC)c1OCCCCOCC=NOCC=C(Cl)Cl` [(10), 4-(2,6-diethyl-4-(3,3-dichloro-2-propenyloxy)phenoxy)butyloxyacetaldehyde O-(3,3-dichloro-2-propenyl)oxime], the mortality at 100 µg/mL in test [2] was not below 80%. With `CCCON=CCCCCOc1c(Cl)cc(OCC=C(Cl)Cl)cc1Cl` [(18), 5-(2,6-dichloro-4-(3,3-dichloro-2-propenyloxy)phenoxy)pentanal O-n-propyloxime], in test [1], the mortality at 500 µg/mL is not below 80%. On the same count and under the same terms, to `C=CCON=CCCCCOc1c(Cl)cc(OCC=C(Cl)Cl)cc1Cl` [(19), 5-(2,6-dichloro-4-(3,3-dichloro-2-propenyloxy)phenoxy)pentanal O-(2-propenyl)oxime] belongs not below 80%. On the same count and under the same terms, as for `COc1ccc(CON=CCCCCOc2c(Cl)cc(OCC=C(Cl)Cl)cc2Cl)cc1` [(22), 5-(2,6-dichloro-4-(3,3-dichloro-2-propenyloxy)phenoxy)pentanal O-(4-methoxybenzyl)oxime], the figure is not below 80%.

The compound `ClC(Cl)=CCOc1cc(Cl)c(OCCCC=NOCC=C(Br)Br)c(Cl)c1` [(25), 4-(2,6-dichloro-4-(3,3-dichloro-2-propenyloxy)phenoxy)butanal O-(3,3-dibromo-2-propenyl)oxime] came in with a mortality at 100 µg/mL in test [2] not below 80%.

In the case of `ClC(Cl)=CCOc1cc(Cl)c(OCCCC=NOCc2ccccc2)c(Cl)c1` [(27), 4-(2,6-dichloro-4-(3,3-dichloro-2-propenyloxy)phenoxy)butanal O-benzyloxime], the mortality at 100 µg/mL in test [2] was not below 80%. `CCON=CCCCOc1c(Cl)cc(OCC=C(Cl)Cl)cc1Cl` [(28), 4-(2,6-dichloro-4-(3,3-dichloro-2-propenyloxy)phenoxy)butanal O-ethyloxime]: the mortality at 500 µg/mL in test [1] is not below 80%.

`CON=CCCCOc1c(Cl)cc(OCC=C(Cl)Cl)cc1Cl` [(29), 4-(2,6-dichloro-4-(3,3-dichloro-2-propenyloxy)phenoxy)butanal O-methyloxime]: in test [1], the mortality at 500 µg/mL is not below 80%.

As to `CC(C)ON=CCOCCCCCOc1c(Cl)cc(OCC=C(Cl)Cl)cc1Cl` [(153), 5-(2,6-dichloro-4-(3,3-dichloro-2-propenyloxy)phenoxy)pentyloxyacetaldehyde O-isopropyloxime], the mortality at 500 µg/mL in test [1] is not below 80%.

As to `CC(C)CON=CCOCCCCCOc1c(Cl)cc(OCC=C(Cl)Cl)cc1Cl` [(155), 5-(2,6-dichloro-4-(3,3-dichloro-2-propenyloxy)phenoxy)pentyloxyacetaldehyde O-isobutyloxime], the mortality at 500 µg/mL in test [1] is not below 80%. Still for that read-out and setting: to `CON=CCOCCCCCOc1c(Cl)cc(OCC=C(Cl)Cl)cc1Cl` [(158), 5-(2,6-dichloro-4-(3,3-dichloro-2-propenyloxy)phenoxy)pentyloxyacetaldehyde O-methyloxime] belongs not below 80%; to `CCON=CCOCCCCCOc1c(Cl)cc(OCC=C(Cl)Cl)cc1Cl` [(159), 5-(2,6-dichloro-4-(3,3-dichloro-2-propenyloxy)phenoxy)pentyloxyacetaldehyde O-ethyloxime], not below 80%.

With `ClC(Cl)=CCOc1cc(Cl)c(OCCCCC=NOCC(Cl)(Cl)Cl)c(Cl)c1` [(170), 5-(2,6-dichloro-4-(3,3-dichloro-2-propenyloxy)phenoxy)pentanal O-(2,2,2-trichloroethyl)oxime], the mortality at 500 µg/mL in test [1] is not below 80%. Regarding `CC(COCCCCCOc1c(Cl)cc(OCC=C(Cl)Cl)cc1Cl)=NOCc1ccccc1` [(175), 5-(2,6-dichloro-4-(3,3-dichloro-2-propenyloxy)phenoxy)pentyloxyacetone O-benzyloxime], in test [1], the mortality at 500 µg/mL is not below 80%.

For `CCON=C(C)COCCCCCOc1c(Cl)cc(OCC=C(Cl)Cl)cc1Cl` [(176), 5-(2,6-dichloro-4-(3,3-dichloro-2-propenyloxy)phenoxy)pentyloxyacetone O-ethyloxime], the mortality at 500 µg/mL in test [1] is not below 80%. Still for that read-out and setting: to `CCON=Cc1ccc(OCCOc2c(Cl)cc(OCC=C(Cl)Cl)cc2Cl)cc1` [(287), 4-(2-(2,6-dichloro-4-(3,3-dichloro-2-propenyloxy)phenoxy)-ethoxy)benzaldehyde O-ethyloxime] belongs not below 80%. In turn, `CC(=NOC(C)(C)C)c1ccc(OCCCOc2c(Cl)cc(OCC=C(Cl)Cl)cc2Cl)cc1` [(294), 4′-(3-(2,6-dichloro-4-(3,3-dichloro-2-propenyloxy)phenoxy)propyloxy)acetophenone O-tert-butyloxime] had a mortality at 100 µg/mL in test [2] not below 80%. Consider `CCON=C(C)c1ccc(OCCCCOc2c(Cl)cc(OCC=C(Cl)Cl)cc2Cl)cc1` [(297), 4′-(4-(2,6-dichloro-4-(3,3-dichloro-2-propenyloxy)phenoxy)butyloxy)acetophenone O-ethyloxime], for which the mortality at 100 µg/mL in test [2] is not below 80%. On the same count and under the same terms, to `CC(=NOCC=C(Br)Br)c1ccc(OCCCCOc2c(Cl)cc(OCC=C(Cl)Cl)cc2Cl)cc1` [(300), 4′-(4-(2,6-dichloro-4-(3,3-dichloro-2-propenyloxy)phenoxy)butyloxy)acetophenone O-(3,3-dibromo-2-propenyl)oxime] belongs not below 80%. Consider `CON=Cc1ccc(OCCCOc2c(Cl)cc(OCC=C(Cl)Cl)cc2Cl)cc1` [(305), 4-(3-(2,6-dichloro-4-(3,3-dichloro-2-propenyloxy)phenoxy)propyloxy)benzaldehyde O-methyloxime], for which the mortality at 500 µg/mL in test [1] is not below 80%. Turning to `ClC(Cl)=CCON=Cc1cccc(COc2c(Cl)cc(OCC=C(Cl)Cl)cc2Cl)c1` [(323), 3-(2,6-dichloro-4-(3,3-dichloro-2-propenyloxy)phenoxymethyl)benzaldehyde O-(3,3-dichloro-2-propenyl)oxime], the mortality at 100 µg/mL in test [2] is not below 80%.

In test [2], `ClC(Cl)=CCOc1cc(Cl)c(OCc2cccc(C=NOCc3ccccc3)c2)c(Cl)c1` [(324), 3-(2,6-dichloro-4-(3,3-dichloro-2-propenyloxy)phenoxymethyl)benzaldehyde O-benzyloxime] registered a mortality at 100 µg/mL not below 80%.

`C=CCON=Cc1cccc(COc2c(Cl)cc(OCC=C(Cl)Cl)cc2Cl)c1` [(330), 3-(2,6-dichloro-4-(3,3-dichloro-2-propenyloxy)phenoxymethyl)benzaldehyde O-allyl oxime]: the mortality at 500 µg/mL in test [1] was not below 80%.

Consider `CON=Cc1ccc(CCCOc2c(Cl)cc(OCC=C(Cl)Cl)cc2Cl)cc1` [(365), 4-(3-(2,6-dichloro-4-(3,3-dichloro-2-propenyloxy)phenoxy)propyl)benzaldehyde O-methyloxime], for which the mortality at 100 µg/mL in test [2] is not below 80%. Consider `CCCCON=Cc1ccc(COc2c(Cl)cc(OCC=C(Cl)Cl)cc2Cl)cc1` [(376), 4-((2,6-dichloro-4-(3,3-dichloro-2-propenyloxy)phenoxy)methyl)benzaldehyde O-butyloxime], for which, in test [1], the mortality at 500 µg/mL is not below 80%.

Turning to `CCCON=Cc1cccc(COc2c(Cl)cc(OCC=C(Cl)Cl)cc2Cl)c1` [(379), 3-((2,6-dichloro-4-(3,3-dichloro-2-propenyloxy)phenoxy)methyl)benzaldehyde O-propyloxime], the mortality at 100 µg/mL in test [2] was not below 80%. As for `CC(C)CON=Cc1cccc(COc2c(Cl)cc(OCC=C(Cl)Cl)cc2Cl)c1` [(381), 3-((2,6-dichloro-4-(3,3-dichloro-2-propenyloxy)phenoxy)methyl)benzaldehyde O-iso-butyloxime], the mortality at 100 µg/mL in test [2] is not below 80%. For `CC=NOCCCCCOc1c(Cl)cc(OCC=C(Cl)Cl)cc1Cl` [(541), acetaldehyde O-(5-(2,6-dichloro-4-(3,3-dichloro-2-propenyloxy)phenoxy)pentyl)oxime], the mortality at 500 µg/mL in test [1] is not below 80%. On the same count and under the same terms, to `CCCCCC=NOCCCCCCOc1c(Cl)cc(OCC=C(Cl)Cl)cc1Cl` [(551), hexanal O-(6-(2,6-dichloro-4-(3,3-dichloro-2-propenyloxy)phenoxy)hexyl)oxime] belongs not below 80%; to `CC(C)=NOCCCCCOc1c(Cl)cc(OCC=C(Cl)Cl)cc1Cl` [(560), acetone O-(5-(2,6-dichloro-4-(3,3-dichloro-2-propenyloxy)phenoxy)pentyl)oxime], not below 80%.

For `CCCCOCC=NOCCCCCOc1c(Cl)cc(OCC=C(Cl)Cl)cc1Cl` [(565), n-butyloxyacetaldehyde O-(5-(2,6-dichloro-4-(3,3-dichloro-2-propenyloxy)phenoxy)pentyl)oxime], the mortality at 500 µg/mL in test [1] is not below 80%. Still for that read-out and setting: to `ClC(Cl)=CCOc1cc(Cl)c(OCCCCCON=C2CCCCC2)c(Cl)c1` [(566), cyclohexanone O-(5-(2,6-dichloro-4-(3,3-dichloro-2-propenyloxy)phenoxy)pentyl)oxime] belongs not below 80%; to `CC(=NOCCCCOc1c(Cl)cc(OCC=C(Cl)Cl)cc1Cl)c1ccccn1` [(689), methyl 2-pyridyl ketone O-(4-(2,6-dichloro-4-(3,3-dichloro-2-propenyloxy)phenoxy)butyl)oxime], not below 80%.

In general, mortality refers to the percentage killed.
